Data: US8778935B2 (Centro Nacional de Investigaciones Oncologicas (CNIO), priority 2009, dated 2014)
Like-named read-outs stand apart in the source and are kept apart here.

Biological target: T1, PI3K (p110α/p85α) (Homo sapiens, UniProt P42336)
T1 construct: purchased Carna Biosciences 07CBS-0402A
Experiment: PI3K Activity Assay (ADP Hunter Plus)
Format: biochemical
Protocol: The kinase activity was measured by using the commercial ADP Hunter™ Plus assay available from DiscoveRx (#33-016), which is a homogeneous assay to measure the accumulation of ADP, a universal product of kinase activity. […] Reaction was carried out for 1 hour at 25° C. Reagent A and B were sequentially added to the wells and plates were incubated for 30 min at 37° C. […] Values were normalized against the control activity included for each enzyme (i.e., 100% PI3 kinase activity, without compound). These values were plot against the inhibitor concentration and were fit to a sigmoid dose-response curve by using the Graphad software.

[1] = quantitative results, read-out: PI3Kα IC50
[2] = semi-quantitative results, read-out: PI3Kα IC50 (semi-quantitative class)
[3] = quantitative results of Table 4, read-out: PI3Kα IC50
[4] = PI3Kα activity, quantitative results, read-out: PI3Kα IC50

T1 sequence (P42336 whole entry): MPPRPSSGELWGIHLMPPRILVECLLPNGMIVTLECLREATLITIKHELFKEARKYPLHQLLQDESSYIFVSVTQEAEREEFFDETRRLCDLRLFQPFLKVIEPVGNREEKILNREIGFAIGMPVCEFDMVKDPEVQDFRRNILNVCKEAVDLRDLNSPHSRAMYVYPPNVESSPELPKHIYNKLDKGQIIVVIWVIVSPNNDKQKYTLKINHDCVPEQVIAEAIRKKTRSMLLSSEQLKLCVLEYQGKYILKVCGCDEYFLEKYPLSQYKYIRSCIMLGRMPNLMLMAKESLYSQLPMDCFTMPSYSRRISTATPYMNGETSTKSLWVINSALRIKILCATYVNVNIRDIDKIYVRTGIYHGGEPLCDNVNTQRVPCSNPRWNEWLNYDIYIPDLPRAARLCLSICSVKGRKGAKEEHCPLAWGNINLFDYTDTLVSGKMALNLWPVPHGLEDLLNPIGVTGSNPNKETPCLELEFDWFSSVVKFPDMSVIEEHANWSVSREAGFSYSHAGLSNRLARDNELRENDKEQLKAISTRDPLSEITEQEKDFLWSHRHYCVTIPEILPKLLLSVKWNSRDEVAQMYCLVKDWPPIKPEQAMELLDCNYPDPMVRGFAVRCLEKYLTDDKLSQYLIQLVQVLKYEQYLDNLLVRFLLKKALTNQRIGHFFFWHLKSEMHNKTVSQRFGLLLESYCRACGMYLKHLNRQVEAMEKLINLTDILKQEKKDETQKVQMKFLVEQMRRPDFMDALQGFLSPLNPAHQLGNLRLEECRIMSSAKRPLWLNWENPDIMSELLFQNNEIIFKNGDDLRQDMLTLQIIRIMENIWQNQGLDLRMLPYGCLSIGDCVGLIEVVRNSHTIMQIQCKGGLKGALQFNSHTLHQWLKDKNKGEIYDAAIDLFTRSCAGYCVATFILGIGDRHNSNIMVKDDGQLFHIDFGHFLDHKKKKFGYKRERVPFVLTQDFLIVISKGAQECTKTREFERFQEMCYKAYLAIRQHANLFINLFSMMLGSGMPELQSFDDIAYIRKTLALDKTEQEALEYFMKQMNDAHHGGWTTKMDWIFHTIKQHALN
T1 sequence (P27986 whole entry partner): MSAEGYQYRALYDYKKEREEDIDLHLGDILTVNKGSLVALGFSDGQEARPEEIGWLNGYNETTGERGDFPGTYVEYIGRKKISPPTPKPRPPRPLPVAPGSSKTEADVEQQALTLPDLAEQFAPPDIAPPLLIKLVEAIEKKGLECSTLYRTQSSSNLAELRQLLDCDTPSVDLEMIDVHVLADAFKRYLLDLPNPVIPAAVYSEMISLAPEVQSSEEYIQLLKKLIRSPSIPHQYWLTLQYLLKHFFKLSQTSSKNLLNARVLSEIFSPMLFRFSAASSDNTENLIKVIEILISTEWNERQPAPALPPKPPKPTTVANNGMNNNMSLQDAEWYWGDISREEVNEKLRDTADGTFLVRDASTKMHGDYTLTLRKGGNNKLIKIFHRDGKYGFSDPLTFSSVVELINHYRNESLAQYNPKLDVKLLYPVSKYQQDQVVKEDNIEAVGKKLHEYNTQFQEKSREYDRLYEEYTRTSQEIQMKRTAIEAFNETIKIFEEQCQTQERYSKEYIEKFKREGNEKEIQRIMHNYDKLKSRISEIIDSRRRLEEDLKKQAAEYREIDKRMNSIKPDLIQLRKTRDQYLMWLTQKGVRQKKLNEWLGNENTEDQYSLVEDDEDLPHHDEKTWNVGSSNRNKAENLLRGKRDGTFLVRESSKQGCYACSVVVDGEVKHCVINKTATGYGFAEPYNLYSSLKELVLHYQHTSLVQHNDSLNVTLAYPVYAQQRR

IC50 [3] | Compound | also measured
355 nM | O=C(c1cn2cc(-c3cccc4[nH]ncc34)nc(N3CCOCC3)c2n1)N1CCCC1 [2-87] | –
4500 nM | CC(C)(C)OC(=O)N1CCC2(CCN(Cc3cn4cc(-c5cccc6[nH]ncc56)nc(N5CCOCC5)c4n3)CC2)C1 [2-97] | –
7200 nM | CC(C)(C)OC(=O)N1CCC2(CCN(Cc3cn4cc(-c5cccc6[nH]ncc56)nc(N5CCOCC5)c4n3)CC2)CC1 [2-98] | –
5300 nM | CC(C)(C)OC(=O)N1CCC2(CCN(Cc3cn4cc(-c5cccc6[nH]ncc56)nc(N5CCOCC5)c4n3)C2)CC1 [2-100] | –
34000 nM | NC(=O)c1cn2cc(-c3cccc4[nH]cc(Cl)c34)nc(N3CCOCC3)c2n1 [2-103] | –
93000 nM | NC(=O)c1cn2c(Cl)c(-c3cccc4[nH]cc(Cl)c34)nc(N3CCOCC3)c2n1 [2-104] | –
123000 nM | NC(=O)c1cn2cc(-c3c(F)ccc4[nH]cc(Cl)c34)nc(N3CCOCC3)c2n1 [2-105] | –
28000 nM | NC(=O)c1cn2c(Cl)c(-c3c(F)ccc4[nH]cc(Cl)c34)nc(N3CCOCC3)c2n1 [2-106] | –
813 nM | c1cc(-c2cn3cc(CN4CCC5(CCNCC5)CC4)nc3c(N3CCOCC3)n2)c2cn[nH]c2c1 [2-111] | –
1300 nM | NC(=O)c1cn2cc(-c3cnc(N)nc3)nc(N3CCCCC3)c2n1 [2-120] | –
776 nM | Cc1ccc(-c2cn3cc(CN4CCN(S(C)(=O)=O)CC4)nc3c(N3CCOCC3)n2)cn1 [2-126] | –
1400 nM | O=C1NCCC12CCN(Cc1cn3cc(-c4cccc5[nH]ncc45)nc(N4CCOCC4)c3n1)CC2 [2-130] | –
14000 nM | O=C1CC2(CCN(Cc3cn4cc(-c5cccc6[nH]ncc56)nc(N5CCOCC5)c4n3)CC2)CN1 [2-131] | –
5200 nM | CS(=O)(=O)N1CCC2(CCN(Cc3cn4cc(-c5cccc6[nH]ncc56)nc(N5CCOCC5)c4n3)CC2)C1 [2-134] | –
832 nM | CN(C)CCNC(=O)c1cn2cc(-c3cccnc3)nc(N3CCOCC3)c2n1 [2-147] | –
2300 nM | CC(=O)NCCNC(=O)c1cn2cc(-c3cccnc3)nc(N3CCOCC3)c2n1 [2-158] | –
398 nM | O=C(NCCN1CCOCC1)c1cn2cc(-c3cccnc3)nc(N3CCOCC3)c2n1 [2-159] | –
1800 nM | Cc1cn2cc(-c3cnc(N)nc3)nc(-c3ccncc3)c2n1 [2-166] | –

More lines, now with the values behind:

Compound | IC50 [3] | also measured
Cc1nc2c(N3CCOCC3)nc(-c3cccc4[nH]ncc34)cn2c1C1CCNCC1 [2-57, 6-(1H-indazol-4-yl)-2-methyl-8-morpholino-3-(piperidin-4-yl)imidazo[1,2-a]-pyrazine] | – | IC50 [1]: 144 nM; IC50 [2]: 100 to 1000 nM
Cc1nc2c(N3CCOCC3)nc(-c3cccc4[nH]ncc34)cn2c1C1CCN(C)CC1 [2-58, 6-(1H-indazol-4-yl)-2-methyl-3-(1-methylpiperidin-4-yl)-8-morpholinoimidazo[1,2-a]pyrazine] | – | IC50 [2]: 100 to 1000 nM
CS(=O)(=O)N1CCN(Cc2cn3c(Cl)c(-c4cccc5[nH]ncc45)nc(N4CCOCC4)c3n2)CC1 [2-60, 5-chloro-6-(1H-indazol-4-yl)-8-morpholino-2-((4-sulfonylmethylpiperazin-1-yl)-methyl)imidazo[1,2-a]pyrazine] | – | IC50 [2]: 100 to 1000 nM
Cc1nc2c(N3CCOCC3)nc(-c3cccc4[nH]ncc34)cn2c1C(=O)NC1CCNCC1 [2-64, 6-(1H-indazol-4-yl)-2-methyl-8-morpholino-N-(piperidin-4-yl)imidazo[1,2-a]-pyrazine-3-carboxamide] | – | IC50 [2]: > 1000 nM
CS(=O)(=O)N1CCN(Cc2cn3cc(-c4ccc(C(N)=O)cc4)nc(N4CCOCC4)c3n2)CC1 [2-68] | – | IC50 [1]: 11000 nM
CC(=O)Nc1ccc(-c2cn3cc(CN4CCN(S(C)(=O)=O)CC4)nc3c(N3CCOCC3)n2)cn1 [2-81] | – | IC50 [1]: 210 nM
CS(=O)(=O)N1CCN(Cc2cn3cc(-c4cnc(N)c(C(F)(F)F)c4)nc(N4CCOCC4)c3n2)CC1 [2-83] | – | IC50 [1]: 210 nM
CN(C)C(=O)c1cn2cc(-c3cccc4[nH]ncc34)nc(N3CCOCC3)c2n1 [2-86] | 891 nM | –
CS(=O)(=O)N1CCN(Cc2cn3cc(-c4ccc(N)cc4)nc(N4CCOCC4)c3n2)CC1 [2-89] | 33000 nM | –
CS(=O)(=O)N1CCN(Cc2cn3cc(-c4cn[nH]c4)nc(N4CCOCC4)c3n2)CC1 [2-90] | 6000 nM | –
NC(=O)c1cn2cc(-c3ccncc3)nc(N3CCOCC3)c2n1 [2-91] | 3900 nM | –
NC(=O)c1cn2cc(-c3cccc4[nH]ccc34)nc(N3CCOCC3)c2n1 [2-94] | 944 nM | –
NC(=O)c1cn2cc(-c3c(F)ccc4[nH]ccc34)nc(N3CCOCC3)c2n1 [2-95] | 891 nM | –
CC(C)(C)OC(=O)N1CC2CN(Cc3cn4cc(-c5cccc6[nH]ncc56)nc(N5CCOCC5)c4n3)CC2C1 (centres unmarked) [2-99] | 7900 nM | –
COC(=O)Cc1cn2cc(-c3cccc4[nH]ncc34)nc(N3CCOCC3)c2n1 [2-107] | 2600 nM | –
COc1ccc(-c2nc(N3CCOCC3)c3nc(CN4CCN(S(C)(=O)=O)CC4)cn3c2Cl)cn1 [2-109] | 1000 nM | –
c1cc(-c2cn3cc(CN4CC5CNCC5C4)nc3c(N3CCOCC3)n2)c2cn[nH]c2c1 (centres unmarked) [2-117] | 851 nM | –
c1cc(-c2cn3cc(CN4CCC5(CCNCC5)C4)nc3c(N3CCOCC3)n2)c2cn[nH]c2c1 [2-118] | 1500 nM | –
CS(=O)(=O)N1CCN(Cc2cn3cc(-c4c(F)ccc5[nH]cc(Cl)c45)nc(N4CCOCC4)c3n2)CC1 [2-122] | 50000 nM | –

Compound | IC50 [3] | also measured
CS(=O)(=O)N1CCC2(CCN(Cc3cn4cc(-c5cccc6[nH]ncc56)nc(N5CCOCC5)c4n3)C2)CC1 [2-129] | 2500 nM | –
CCOC(=O)c1cn2cc(-c3cnc(N)nc3)nc(N3CCOCC3)c2n1 [2-138] | 12 nM | –
CN(C)CCNC(=O)c1cn2cc(-c3cccc4[nH]ncc34)nc(N3CCOCC3)c2n1 [2-141] | 65 nM | –
CS(=O)(=O)N1CCC2(CCN(Cc3cn4cc(-c5cccc6[nH]ncc56)nc(N5CCOCC5)c4n3)CC2)CC1 [2-149] | 1300 nM | –
CS(=O)(=O)N1CCC2(CC1)CN(Cc1cn3cc(-c4cccc5[nH]ncc45)nc(N4CCOCC4)c3n1)C2 [2-150] | 2800 nM | –
Cc1ccncc1-c1cn2cc(CN3CCN(S(C)(=O)=O)CC3)nc2c(N2CCOCC2)n1 [2-152] | 468 nM | –
COc1cc(C)c(-c2cn3cc(CN4CCN(S(C)(=O)=O)CC4)nc3c(N3CCOCC3)n2)cn1 [2-153] | 2400 nM | –
CC(=O)NCCNC(=O)c1cn2cc(-c3cccc4[nH]ncc34)nc(N3CCOCC3)c2n1 [2-157] | 776 nM | –
Cc1cn2cc(-c3cccc4[nH]ncc34)nc(-c3ccncc3)c2n1 [2-168] | 26000 nM | –
CS(=O)(=O)N1CCC2(CC1)CN(Cc1cn3cc(-c4cnc(N)nc4)nc(N4CCOCC4)c3n1)C2 [2-169] | 110 nM | –
Cc1cn2cc(-c3cnc(N)nc3)nc(N3CCOCC3)c2n1 [2-181] | – | IC50 [4]: 110 nM
CCOC(=O)N1CCC(NC(=O)c2cn3cc(-c4cccc5[nH]ncc45)nc(N4CCOCC4)c3n2)CC1 [2-182] | – | IC50 [4]: 245 nM
CS(=O)(=O)N1CCN(Cc2nc3c(N4CCOCC4)nc(-c4cccc5[nH]ncc45)cn3c2Br)CC1 [2-183] | – | IC50 [4]: 170 nM
Cc1nc(N)ncc1-c1cn2cc(CN3CCN(S(C)(=O)=O)CC3)nc2c(N2CCOCC2)n1 [2-200] | – | IC50 [4]: 32 nM
CS(=O)(=O)N1CCN(Cc2cn3cc(-c4ccc(C#N)nc4)nc(N4CCOCC4)c3n2)CC1 [2-201] | – | IC50 [4]: 3300 nM
COc1ccncc1-c1cn2cc(CN3CCN(S(C)(=O)=O)CC3)nc2c(N2CCOCC2)n1 [2-204] | – | IC50 [4]: 10000 nM
CS(=O)(=O)N1CCN(Cc2cn3c(Cl)c(-c4ccc(C#N)nc4)nc(N4CCOCC4)c3n2)CC1 [2-206] | – | IC50 [4]: 3700 nM
CNc1ncc(-c2nc(N3CCOCC3)c3nc(CN4CCN(S(C)(=O)=O)CC4)cn3c2Cl)cn1 [2-207] | – | IC50 [4]: 11 nM
